Patent US20090005375A1, “ACETYL COENZYME A CARBOXYLASE INHIBITORS” (priority 2007, published 2009)

How the values were obtained:
[1] = target: T1, Human ACC2 (Homo sapiens, UniProt O00763); experiment: In vitro enzymatic ACC activity assay (malachite green), ACC2; format: biochemical; settings: recombinant His-tagged enzyme, absorbance at 620 nm
T1 construct: made in house; host or cells: SF-9 insect cells (baculovirus, pFAST-BacHTa)
Method: (§1) Provided in Example A is an in vitro enzymatic ACC activity assay for activity against ACC. The binding affinity of the test compound to ACC1 or ACC2 is determined by the changes in absorbance (at 620 nm); […]. It should be noted that a variety of other expression systems and hosts are also suitable for the expression of ACC, as would be readily appreciated by one of skill in the art.
Human ACC2 cDNA except coding region for mitochondria localization sequence was amplified from human skeletal muscle cDNA by polymerase chain reaction using primers; 5′[…]3′ (SEQ ID NO: 3) and 5′[…]3′ (SEQ ID NO: 4). The amplified DNA fragment was digested by SalI and AflII, and cloned into pFAST-BacHTa (Invitrogen). Preparation of recombinant vaculovirus, infection of the virus to SF-9 cells and purification of recombinant ACC2 protein with 6×His-tag at the N-terminal were performed in the same method as described above.
(§2) Malachite green solution was prepared by mixing 100 mL of solution A (0.12% malachite green in 5NH2SO4), 25 mL of solution B (7.5% ammonium molybdate) and 2 mL of solution C (11% TWEEN-20).
(§3) ACC1 was diluted to 8 μg/mL in reaction buffer (50 mM HEPES pH7.5, 10 mM MgCl2, 10 mM tripotassium citrate, 2 mM DTT, 0.75 mg/mL fatty acid free BSA) and 10 μL diluted enzyme solution was pored into each well of 384-well clear bottom plate. Test compound was diluted in the reaction buffer and 5 μL of the compound solution was added into each well, and the mixture was incubated at 30° C. for 60 minutes. Reaction was initiated by addition of 5 μL substrate solution (50 mM KHCO3, 200 μM ATP, 200 μM acetyl-CoA). After incubation at 30° C. for 20 minutes, reaction was terminated by addition of 5 μL malachite green solution and absorbance at 620 nm was measured.
ACC2 was diluted to 6.4 μg/mL in reaction buffer, and the activity was measured by the same method as described for ACC1.
(§4) Percent activity at each concentration of compound was calculated from the following equation: […]
(§5) Data were subjected to nonlinear regression analysis using GraphPad Prism Software (GraphPad Software Inc.) to obtain IC50 values.

[2] = target: T2, Human ACC1 (Homo sapiens, UniProt Q13085); experiment: In vitro enzymatic ACC activity assay (malachite green), ACC1; format: biochemical; settings: recombinant His-tagged enzyme, absorbance at 620 nm
T2 construct: made in house; host or cells: SF-9 insect cells (baculovirus, pFAST-BacHTc)
Method: as §1
Human ACC1 cDNA was amplified from human liver cDNA by polymerase chain reaction using primers; 5′[…]3′ (SEQ ID NO: 1) and 5′[…]3′ (SEQ ID NO: 2). The amplified DNA fragment was digested by restriction enzyme SalI and NotI, and cloned into pFAST-BacHTc (Invitrogen). This plasmid DNA was used for preparation of recombinant vaculovirus with BAC-TO-BAC Baculovirus Expression System (Invitrogen).
SF-9 cells were infected with the vaculovirus and cultured at 27° C. for 3 days. Harvested cells were homogenized in buffer A (25 mM HEPES (pH7.5), 130 mM NaCl, 1 mM EDTA, 25 mM sodium glycerophosphate, 1 mM sodium orthovanadate, 10% glycerol, complete protease inhibitor), and subjected to ultracentrifuge at 185700×g for 50 min at 4° C. ACC1 protein with 6×His-tag at the N-terminal was purified from the supernatant using Ni-NTA Super Flow Gel (QIAGEN). Eluted protein was dialysed against buffer B (50 mM HEPES (pH 7.5), 300 mM NaCl, 10 mM MgCl2, 10 mM tripotassium citrate, 2 mM dithiothreitol) and concentrated using Vivaspin20 ultrafiltration tube (Sartorius).
as §2, §3, §4, §5

T1 sequence (O00763 117-2458 limits assumed): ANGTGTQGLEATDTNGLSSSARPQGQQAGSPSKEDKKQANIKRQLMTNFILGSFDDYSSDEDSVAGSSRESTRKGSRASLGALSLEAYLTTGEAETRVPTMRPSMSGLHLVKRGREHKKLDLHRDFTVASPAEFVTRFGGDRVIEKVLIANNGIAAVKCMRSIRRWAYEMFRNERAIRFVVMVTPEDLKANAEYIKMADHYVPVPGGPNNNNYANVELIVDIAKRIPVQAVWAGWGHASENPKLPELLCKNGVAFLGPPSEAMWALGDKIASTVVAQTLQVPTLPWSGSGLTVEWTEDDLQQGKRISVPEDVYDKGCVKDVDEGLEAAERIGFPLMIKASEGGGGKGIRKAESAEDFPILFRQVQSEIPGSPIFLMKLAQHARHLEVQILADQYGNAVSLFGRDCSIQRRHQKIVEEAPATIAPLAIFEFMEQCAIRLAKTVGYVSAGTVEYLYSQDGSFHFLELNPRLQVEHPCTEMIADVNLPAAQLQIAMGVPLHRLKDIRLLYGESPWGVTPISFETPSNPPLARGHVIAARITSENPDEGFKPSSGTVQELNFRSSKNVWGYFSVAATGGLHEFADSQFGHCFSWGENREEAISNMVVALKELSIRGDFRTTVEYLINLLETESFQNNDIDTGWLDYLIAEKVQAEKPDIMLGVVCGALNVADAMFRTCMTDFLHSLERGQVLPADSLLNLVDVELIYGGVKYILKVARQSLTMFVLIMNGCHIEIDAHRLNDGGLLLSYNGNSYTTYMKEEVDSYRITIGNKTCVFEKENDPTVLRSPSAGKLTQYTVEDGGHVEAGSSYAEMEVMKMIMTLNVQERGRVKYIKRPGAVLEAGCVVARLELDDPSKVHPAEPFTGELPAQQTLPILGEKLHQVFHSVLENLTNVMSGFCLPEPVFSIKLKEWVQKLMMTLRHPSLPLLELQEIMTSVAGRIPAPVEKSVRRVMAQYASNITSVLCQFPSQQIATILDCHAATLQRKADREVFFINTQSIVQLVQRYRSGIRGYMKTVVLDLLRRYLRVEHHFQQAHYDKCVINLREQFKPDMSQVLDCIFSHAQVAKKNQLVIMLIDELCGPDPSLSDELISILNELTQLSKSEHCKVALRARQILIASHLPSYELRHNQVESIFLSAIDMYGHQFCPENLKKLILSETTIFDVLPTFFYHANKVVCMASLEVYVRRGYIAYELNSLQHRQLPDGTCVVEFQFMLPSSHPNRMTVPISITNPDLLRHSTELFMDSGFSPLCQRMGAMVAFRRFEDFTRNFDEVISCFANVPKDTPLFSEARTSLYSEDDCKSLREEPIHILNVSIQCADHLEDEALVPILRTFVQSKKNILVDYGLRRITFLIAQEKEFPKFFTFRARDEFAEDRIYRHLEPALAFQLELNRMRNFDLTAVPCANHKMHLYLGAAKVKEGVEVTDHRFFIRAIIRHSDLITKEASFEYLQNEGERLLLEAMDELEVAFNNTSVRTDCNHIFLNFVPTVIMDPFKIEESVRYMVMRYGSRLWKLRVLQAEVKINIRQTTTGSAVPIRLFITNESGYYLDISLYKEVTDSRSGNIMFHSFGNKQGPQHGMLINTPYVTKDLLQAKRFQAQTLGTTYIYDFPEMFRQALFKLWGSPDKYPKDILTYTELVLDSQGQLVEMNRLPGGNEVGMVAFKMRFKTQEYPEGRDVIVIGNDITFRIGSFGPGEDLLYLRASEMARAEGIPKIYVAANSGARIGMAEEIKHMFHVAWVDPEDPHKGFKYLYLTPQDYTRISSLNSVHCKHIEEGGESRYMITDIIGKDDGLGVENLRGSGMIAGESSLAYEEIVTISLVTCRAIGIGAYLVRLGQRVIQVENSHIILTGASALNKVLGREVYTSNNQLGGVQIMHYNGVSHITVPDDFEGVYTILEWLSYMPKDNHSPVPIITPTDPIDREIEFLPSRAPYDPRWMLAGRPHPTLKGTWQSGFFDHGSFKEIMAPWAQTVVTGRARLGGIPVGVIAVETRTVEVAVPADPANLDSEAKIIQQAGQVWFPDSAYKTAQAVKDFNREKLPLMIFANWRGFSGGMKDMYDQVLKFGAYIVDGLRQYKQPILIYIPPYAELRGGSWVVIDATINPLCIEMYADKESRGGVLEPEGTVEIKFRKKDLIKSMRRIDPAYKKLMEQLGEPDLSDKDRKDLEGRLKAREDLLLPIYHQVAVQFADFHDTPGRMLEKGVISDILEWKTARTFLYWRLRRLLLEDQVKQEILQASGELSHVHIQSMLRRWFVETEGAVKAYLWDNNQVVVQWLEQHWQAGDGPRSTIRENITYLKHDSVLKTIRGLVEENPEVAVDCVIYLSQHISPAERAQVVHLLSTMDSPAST

Row | Structure (SMILES) | IC50 [1] [µM] | IC50 [2] [µM]
1 | CCNC(=O)Nc1sc2ccccc2c1C(=O)N1CCN(S(=O)(=O)CC(C)C)CC1 [Example 26, ethyl-3-(3-(4-(isobutylsulfonyl)piperazine-1-carbonyl)benzo[b]thiophen-2-yl)urea] | 5 to 50 | 5 to 50
2 | CCNC(=O)Nc1sc2ccccc2c1C(=O)N1CCN(S(=O)(=O)CCC(F)(F)F)CC1 [Example 27, ethyl-3-(3-(4-(3,3,3-trifluoropropylsulfonyl)piperazine-1-carbonyl)benzo[b]thiophen-2-yl)urea] | 5 to 50 | > 50
3 | CCNC(=O)Nc1sc2ccccc2c1C(=O)N1CCN(S(C)(=O)=O)CC1 [Example 28, ethyl-3-(3-(4-(methylsulfonyl)piperazine-1-carbonyl)benzo[b]thiophen-2-yl)urea] | > 50 | > 50
4 | CCNC(=O)Nc1sc2ccccc2c1C(=O)N1CCN(S(=O)(=O)c2ccc(S(C)(=O)=O)cc2)CC1 [Example 29, ethyl-3-(3-(4-(4-(methylsulfonyl)phenylsulfonyl)piperazine-1-carbonyl)benzo[b]thiophen-2-yl)urea] | 5 to 50 | > 50
5 | CCNC(=O)Nc1sc2ccccc2c1C(=O)N1CCN(S(=O)(=O)c2ccc3c(c2)NC(=O)C3)CC1 [Example 30, ethyl-3-(3-(4-(2-oxoindolin-6-ylsulfonyl)piperazine-1-carbonyl)benzo[b]thiophen-2-yl)urea] | < 5 | 5 to 50
6 | CCNC(=O)Nc1sc2ccccc2c1C(=O)N1CCN(S(=O)(=O)c2ccc3[nH]c(=O)[nH]c3c2)CC1 [Example 31, ethyl-3-(3-(4-(2-oxo-2,3-dihydro-1H-benzo[d]imidazol-5-ylsulfonyl)piperazine-1-carbonyl)benzo[b]thiophen-2-yl)urea] | < 5 | < 5

Now from value to molecule:

Row | IC50 [1] [µM] | IC50 [2] [µM] | Structure (SMILES)
7 | 5 to 50 | > 50 | CCNC(=O)Nc1sc2ccccc2c1C(=O)N1CCN(S(=O)(=O)c2ccc3oc(=O)[nH]c3c2)CC1 [Example 32, ethyl-3-(3-(4-(2-oxo-2,3-dihydrobenzo[d]oxazol-5-ylsulfonyl)piperazine-1-carbonyl)benzo[b]thiophen-2-yl)urea]
8 | 5 to 50 | 5 to 50 | CCNC(=O)Nc1sc2ccccc2c1C(=O)N1CCN(S(=O)(=O)CCC(=O)N(CC)CC)CC1 [Example 34, N,N-diethyl-3-(4-(2-(3-ethylureido)benzo[b]thiophene-3-carbonyl)piperazin-1-ylsulfonyl)propanamide]
9 | 5 to 50 | 5 to 50 | CCNC(=O)Nc1sc2ccccc2c1C(=O)N1CCN(S(=O)(=O)CCC(=O)N2CCCC2)CC1 [Example 35, ethyl-3-(3-(4-(3-oxo-3-(pyrrolidin-1-yl)propylsulfonyl)piperazine-1-carbonyl)benzo[b]thiophen-2-yl)urea]
10 | 5 to 50 | 5 to 50 | CCNC(=O)Nc1sc2ccccc2c1C(=O)N1CCN(S(=O)(=O)CCC(=O)N2CCOCC2)CC1 [Example 36, ethyl-3-(3-(4-(3-morpholino-3-oxopropylsulfonyl)piperazine-1-carbonyl)benzo[b]thiophen-2-yl)urea]
11 | < 5 | > 50 | CCNC(=O)Nc1sc2ccccc2c1C(=O)N1CCC(S(=O)(=O)c2cccc(OC)c2)CC1 [Example 37, ethyl-3-(3-(4-(3-methoxyphenylsulfonyl)piperidine-1-carbonyl)benzo[b]thiophen-2-yl)urea]
12 | > 50 | > 50 | CCNC(=O)Nc1sc2ccccc2c1C(=O)N1CCC(S(=O)(=O)c2ccc3c(c2)OCO3)CC1 [Example 38, 1-(3-(4-(benzo[d][1,3]dioxol-5-ylsulfonyl)piperidine-1-carbonyl)benzo[b]thiophen-2-yl)-3-ethylurea]
13 | < 5 | < 5 | CCNC(=O)Nc1sc2ccccc2c1C(=O)N1CCC(Sc2cccc(OC)c2)CC1 [Example 39, ethyl-3-(3-(4-(3-methoxyphenylthio)piperidine-1-carbonyl)benzo[b]thiophen-2-yl)urea]
